Columns and labels:
[1] = test system: haloperidol-induced stiffness; experiment: Haloperidol-induced Parkinson's disease stiffness model in CD-1 mice (rearing and bar tests); assay type: in vivo
Source text: Parkinson's disease (PD) is a common class of degenerative disease of the nervous system with the main pathological changes including the loss of substantia nigra dopaminergic neurons and the decrease of dopamine transmitter content, leading to tremor at rest, muscle stiffness, […], postural reflex disorders and other clinical symptoms. Haloperidol, a dopamine D2 receptor blocker, can block the dopamine D2 receptor in the striatum, leading to mouse dystonic postures, namely, stiffness and hypokinesia. This model is a recognized animal model of Parkinson's syndrome. The ameliorative effect of a test substance on the stiffness symptom of Parkinson's disease induced by haloperidol in CD-1 mice was evaluated. 57 SPF-grade male CD-1 mice (4 weeks old at the time of purchase and 8 weeks old at the time of experiment) with the weight of about 40 g were randomly divided into 5 groups, namely, a vehicle group (n=11), a group of 1 mg/kg benzene sulfonate of Compound 40 (n=11), a group of 3 mg/kg benzene sulfonate of Compound 40 (n=12), a group of 10 mg/kg benzene sulfonate of Compound 40 (n=12), and a group of 30 mg/kg benzene sulfonate of Compound 40 (n=11). 1 mg/kg haloperidol was injected subcutaneously at an injection volume of 10 ml/kg. 30 minutes after the injection, Compound 40 at each dose was intragastrically infused at a volume of 10 ml/kg. At the 1st hour and the 4th hour after the administration was completed, the rearing and bar tests were performed respectively, and the number of standings and on-bar time of the mice were counted to evaluate the ameliorative effect of Compound 40 on the stiffness symptom of haloperidol-induced Parkinson's disease in CD-1 mice. […] Firstly, the acetate of Compound 22 at each dose was intragastrically infused at a volume of 10 ml/kg. After 30 min, 1 mg/kg haloperidol was injected subcutaneously at an injection volume of 10 ml/kg. At the 1st hour and the 4th hour after the administration was completed, the rearing and bar tests were performed respectively, and the number of standings and on-bar time of the mice were counted to evaluate the ameliorative effect of the acetates of Compound 22 on the stiffness symptom of haloperidol-induced Parkinson's disease in CD-1 mice. […] Firstly, Compound 27 at each dose was intragastrically infused at a volume of 10 ml/kg. After 30 min, 1 mg/kg haloperidol was injected subcutaneously at an injection volume of 10 ml/kg. At the 1st hour and the 4th hour after the administration was completed, the rearing and bar tests were performed respectively, and the number of standings and on-bar time of the mice were counted to evaluate the ameliorative effect of Compound 27 on the stiffness symptom of haloperidol-induced Parkinson's disease in CD-1 mice. The mice were subcutaneously injected with haloperidol at abdomen at a dose of 1 mg/kg, with the concentration of a working solution of 0.1 mg/ml and an injection volume of 10 ml/kg. At the 1st hour and the 4th hour after drug intervention, the mice were put into a white transparent plastic bucket with a diameter of 20 cm and a height of 21 cm. The mice were allowed to acclimate in the bucket for 5 min before starting video recording. The spontaneous activity behaviors of the mice within 10 minutes were recorded, whereby the number of standings was counted. The more the standings, the more frequent the spontaneous exploration activities of the mice, and the lower the degree of stiffness. At the time points of 1st and 4th hours after the rearing test was completed, bar test was carried out. The mice were placed on a long wooden bar with a diameter of […] and a height of 6 cm. The mice were let to hold the wooden bar with forelimbs, only with the buttocks or hind limbs on the ground. The timing was stopped when the hind limbs left the bench top or the fore limbs left the wooden bar, and the on-bar time of the mice was recorded. Each mouse was tested 3 times, and the maximum on-bar time and the average on-bar time were counted. […]

adenosine receptors A2A = biological target: T1, adenosine receptors A2A (Homo sapiens, UniProt P29274); experiment: TR-FRET-based cAMP accumulation assay in hADORA2A-HEK293 cells; assay type: cell-based; conditions: NECA at EC80, hADORA2A-HEK293, read-out: A2AR activity (IC50)
T1 construct: expressed in transfected cells; host or cells: HEK293 (hADORA2A-HEK293)
Protocol: The inhibitory effects of the test compounds on the adenosine receptors A2A were evaluated by TR-FRET-based cAMP accumulation assay. The method included, in HEK293 cells (hADORA2A-HEK293) expressing A2AR, the production of cAMP stimulated by NECA and the inhibitory effect of A2A receptor antagonists on cAMP. All cells were cultured in a complete medium at 37° C. in the presence of 5% CO2. After being digested with trypsin, the cells were collected by centrifugation at 200 g for 5 minutes. The cells were resuspended in a fresh complete medium, and then the cell viability was counted by a trypan blue exclusion method. […] The cells were diluted with Hank's buffer solution containing HEPES (5 mM), BSA stabilizer (0.1%) and Rolipram (10 μM), then added to a 384-well white non-transparent plate (cells/well, 10 μl/well), and incubated with the test compound at an appropriate concentration (11 concentrations) for 20 minutes at room temperature. Then, the A2A receptor agonist NECA (final concentration=EC80, which was determined in the same experiment performed earlier) was added to the sample, and the sample was incubated again at 37° C. for 30 minutes.
An inhibition rate (%) was calculated according to the following formula, and an IC50 value was calculated from a concentration-inhibition (%) curve after log conversion.
A curve corresponding to the dose was fitted by using XLfit software and the IC50 was determined.

adenosine receptor A3 = biological target: T2, adenosine receptor A3 (Homo sapiens, UniProt P0DMS8); experiment: cAMP experiment on Gi-coupled adenosine receptor A3 (CHO); assay type: cell-based; conditions: cAMP accumulation; read-out: IC50 (nM) CHO cells (ADORA3)
T2 construct: host or cells: CHO
T2 sequence (P0DMS8 1-318): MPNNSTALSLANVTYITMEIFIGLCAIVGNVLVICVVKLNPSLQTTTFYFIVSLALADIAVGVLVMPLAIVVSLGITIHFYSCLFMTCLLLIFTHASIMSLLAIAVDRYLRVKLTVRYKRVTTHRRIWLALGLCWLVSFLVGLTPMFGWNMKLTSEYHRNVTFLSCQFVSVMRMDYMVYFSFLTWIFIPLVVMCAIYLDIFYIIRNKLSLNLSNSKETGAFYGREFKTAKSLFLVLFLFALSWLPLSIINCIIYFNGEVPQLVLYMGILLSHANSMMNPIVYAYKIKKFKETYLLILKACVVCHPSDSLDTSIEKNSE
Protocol: Similarly, a CHO cell strain stably expressing the adenosine receptor A3 was taken as a study object (PerkinElmer, ES-012-C) for the experiment. The IC50 value of the compound was calculated.

[2] = Experiment II, 3 mg/kg intragastric, 1 h
[3] = Experiment II, 3 mg/kg intragastric, 4 h
[4] = Experiment II, 10 mg/kg intragastric, 1 h
[5] = Experiment II, 10 mg/kg intragastric, 4 h
[6] = Experiment II, 30 mg/kg intragastric, 1 h
[7] = Experiment II, 30 mg/kg intragastric, 4 h
[8] = Experiment III, 3 mg/kg intragastric, 1 h
[9] = Experiment III, 3 mg/kg intragastric, 4 h
[10] = Experiment III, 10 mg/kg intragastric, 1 h
[11] = Experiment III, 10 mg/kg intragastric, 4 h
[12] = Experiment III, 30 mg/kg intragastric, 1 h
[13] = Experiment III, 30 mg/kg intragastric, 4 h

T1 sequence (P29274 whole entry): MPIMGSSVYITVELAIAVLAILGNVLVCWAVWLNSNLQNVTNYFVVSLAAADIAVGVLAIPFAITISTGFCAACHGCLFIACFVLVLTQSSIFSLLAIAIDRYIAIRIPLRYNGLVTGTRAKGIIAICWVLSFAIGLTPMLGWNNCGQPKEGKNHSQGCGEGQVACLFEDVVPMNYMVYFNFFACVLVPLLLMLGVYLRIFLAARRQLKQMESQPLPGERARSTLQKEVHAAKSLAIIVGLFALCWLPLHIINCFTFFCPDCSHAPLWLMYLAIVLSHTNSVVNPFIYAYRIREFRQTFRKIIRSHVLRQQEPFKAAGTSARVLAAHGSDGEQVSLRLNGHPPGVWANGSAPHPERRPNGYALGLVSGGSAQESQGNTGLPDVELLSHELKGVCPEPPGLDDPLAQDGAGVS

Row | IC50 (adenosine receptors A2A) | IC50 (adenosine receptor A3) | Structure (SMILES) | Average on-bar time [1, 4] | Maximum on-bar time [1, 4] | Average on-bar time [1, 5] | Maximum on-bar time [1, 5] | Average on-bar time [1, 10] | Maximum on-bar time [1, 10] | Average on-bar time [1, 11] | Maximum on-bar time [1, 11] | other results
1 | – | – | CC(=O)O.Nc1nc(NCCc2ccc(NC3COC3)cc2)nc2nc(-c3ccco3)nn12 [Acetate of Compound 22, 2-(furan-2-yl)-N5-(4-(oxetane-3-ylamino)phenethyl)-[1,2,4]triazolo[1,5-a][1,3,5]triazine-5,7-diamine acetate] | 41.88 ± 10.56 s | 77.13 ± 25.78 s | 33.17 ± 6.69 s | 50.50 ± 12.24 s | – | – | – | – | Average on-bar time [1, 2]: 109.38 ± 13.74 s; Maximum on-bar time [1, 2]: 157.50 ± 18.11 s; Average on-bar time [1, 3]: 109.33 ± 26.37 s; Maximum on-bar time [1, 3]: 172.25 ± 58.28 s; Average on-bar time [1, 6]: 26.17 ± 3.88 s; Maximum on-bar time [1, 6]: 42.25 ± 8.18 s; Average on-bar time [1, 7]: 24.13 ± 4.28 s; Maximum on-bar time [1, 7]: 32.88 ± 6.21 s
2 | 10.6 nM | 458 nM | COCCNc1ccc(CCNc2nc(N)n3nc(-c4ccco4)nc3n2)cc1 [Compound 27, 2-(furan-2-yl)-N5-(4-((2-methoxyethyl)amino)phenethyl)-[1,2,4]triazolo[1,5-a][1,3,5]triazine-5,7-diamine] | – | – | – | – | 34.83 ± 8.63 s | 61.38 ± 15.59 s | 39.13 ± 14.33 s | 55.13 ± 18.32 s | Average on-bar time [1, 8]: 56.83 ± 11.67 s; Maximum on-bar time [1, 8]: 88.00 ± 22.07 s; Average on-bar time [1, 9]: 75.11 ± 19.52 s; Maximum on-bar time [1, 9]: 109.33 ± 28.68 s; Average on-bar time [1, 12]: 22.04 ± 4.19 s; Maximum on-bar time [1, 12]: 35.00 ± 8.59 s; Average on-bar time [1, 13]: 23.00 ± 4.46 s; Maximum on-bar time [1, 13]: 31.88 ± 5.75 s
3 | 9.66 nM | 928 nM | Cn1nnc(-c2ccc(CCNc3nc(N)n4nc(-c5ccco5)nc4n3)cc2)n1 [Compound 40, N5-(4-(2-methyl-2H-tetrazol-5-yl)phenethyl)-2-(furan-2-yl)-[1,2,4]triazolo[1,5-a][1,3,5]triazine-5,7-diamine] | – | – | – | – | – | – | – | – | –
4 | – | 2080 nM | CCn1c(=O)c2c(nc(/C=C/c3ccc(OC)c(OC)c3)n2C)n(CC)c1=O [Istradefylline, reference compound] | 23.04 ± 4.88 s | 30.38 ± 5.84 s | 24.67 ± 5.21 s | 35.75 ± 8.73 s | 23.71 ± 6.50 s | 40.75 ± 13.17 s | 34.08 ± 6.69 s | 54.75 ± 15.58 s | –

Row | Structure (SMILES) | IC50 (adenosine receptors A2A) | IC50 (adenosine receptor A3) | Average on-bar time [1, 4] | Maximum on-bar time [1, 4] | Average on-bar time [1, 5] | Maximum on-bar time [1, 5] | Average on-bar time [1, 10] | Maximum on-bar time [1, 10] | Average on-bar time [1, 11] | Maximum on-bar time [1, 11] | other results
5 | Nc1nc(NCCc2ccc(NC3COC3)cc2)nc2nc(-c3ccco3)nn12 [Compound 22, 2-(furan-2-yl)-N5-(4-(oxetan-3-ylamino)phenethyl)-[1,2,4]triazolo[1,5-a][1,3,5]triazine-5,7-diamine] | 7.07 nM | 585 nM | – | – | – | – | – | – | – | – | –

From patent US20230048888A1, “USE OF TRIAZOLOTRIAZINE DERIVATIVE IN TREATMENT OF DISEASES” (ZHEJIANG VIMGREEN PHARMACEUTICALS, LTD., priority 2019, published 2023)
